From patent publication US9518022B2, “Anti-HIV compounds” (priority 2014, dated 2016) come the findings set out here.

In data set [1] the test system is HIV-1 NL4-3 viral clone engineered to express Renilla luciferase in place of Nef. Briefly: microbe, parasite or virus in culture. Format: cell-based. Conditions: Human immunodeficiency virus 1, NL43, MT2, 96 h. As to the method: The present assay was used to screen candidate antiviral compounds by quantification of virus spread and production over several rounds of infection in vitro. MT-2, a HIV-1 permissive human T-cell line, was seeded in microtiter plates and was simultaneously treated with serially diluted compound and inoculated with a HIV-1 NL4-3 viral clone engineered to express Renilla luciferase in place of Nef. Following treatment, the culture was incubated for 96 hours. After the incubation, media was collected and used to estimate relative infectivity on the indicator cell line, TZM-bl. Additionally, viral spread was quantified by measuring luciferase activity via a commercially available luciferase substrate. In parallel, MT-2 cells were seeded and inoculated with mock virus in the presence of serially diluted compound. Compound toxicity was quantified 96 hours after treatment with AlamarBlue.
MT-2 (NIH Aids reagent program 237) cells were grown and maintained in an incubator at 37° C. with 5% CO2 using a basal medium of RPMI-1640 supplemented with 10% FBS. Cells were seeded in 100 μl at 2×10^4 cells/well in white walled 96-well microtiter plates. Candidate compounds were 3-fold serially diluted in the appropriate solvent. Solvent without compound was used as a no drug reference. Cells were inoculated at a multiplicity of 0.027 with an HIV-1 NL4-3 virus stock engineered to express Renilla luciferase in place of Nef. Diluted virus stock was first added to serially diluted compound. Compound and virus were delivered to cells in an equal volume (100 μl) and treated cultures were returned to the incubator for 96 hours. In parallel, plates for cytotoxicity estimates were prepared in the same way except cells were plated in clear walled 96-well microtiter plates and were mock infected.
At 96 hours post infection, 100 μl virus containing culture supernatant was collected from the treated and infected cultures and serially diluted in DMEM supplemented with 10% FBS, 1% sodium pyruvate, and 20 μg/ml DEAE dextran. One day prior, TZM-bl (ATCC PTA-5659) were cultured in basal medium of DMEM supplemented with 10% FBS and 1% sodium pyruvate and seeded at 7.5×10^3 cells/well in black walled 96-well microtiter plates. Diluted virus containing culture supernatant was transferred to TZM-bl cultures and incubated for 48 hours at 37° C. with 5% CO2. Infected TZM-bl cultures were fixed for 5 minutes with a 1% formaldehyde/0.2% gluteraldehyde/PBS solution then washed three times with PBS. Fixed cultures were incubated at 37° C. for 25 minutes with a 200 μg/ml MUG (4-Methylumbelliferyl β-D-[…])/DMEM solution. The reaction was stopped with an equal volume of 1M sodium carbonate and read at 360, 449 nm on fluorescence plate reader (Biotek).
At 96 hours post infection, 100 μl of culture supernatant was removed from the treated and infected cultures and EnduRen live cell substrate (Promega) was added at a final concentration 1.3 μg/ml. Cells were incubated for 1.5 hours at 37° C. with 5% CO2 then read on a luminescence plate reader (Biotek).
For all assays, data was imported into Accelrys Assay Explorer 3.3. In Assay Explorer, % inhibition (antiviral or cytotoxicity) was calculated using the solvent control as a reference by the following equation: 1−(SignalCompound/SignalReference). The % Inhibition and compound concentration data was fitted using the following 4-parameter logistic model (Assay Explorer model 42):
[formula] where X is compound concentration, Y is % inhibition, D is the maximum % Inhibition (constrained to 100%), C is IC50 value or inflection point, B is the hill slope, and A is the minimum % inhibition (constrained to 0%). The IC50 value is reported as the EC50 or CC50 depending on the assay endpoint. EC50 represents the effective concentration at which virus replication is inhibited by 50 percent. CC50 represents the concentration that results in the death of 50 percent of the host cells. […]

A short description of data set [2]: Cytotoxicity assay (AlamarBlue) in mock infected MT-2 cells. Format: cell-based. Conditions: human. Put shortly: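 MT-2 cells at 2×10^4 cells/well, mock-infected, treated with 3-fold serial compound dilutions for 96 h at 37 °C. AlamarBlue added for 3 h, fluorescence read at 545/590 nm; % inhibition versus solvent control fitted to a 4-parameter logistic to give CC50.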
A general note: The colour change of resazurin is a common sign of viable cells or microbes.

A word on the EC50: it is the concentration giving half of the maximal effect. What is called CC50 is the concentration at which the toxic effect on the cells reaches its halfway point.

`COc1cc2c(cc1OCc1ccccc1)CCNC2/C=C/c1cccc2[nH]ccc12` (stereo not shown) [CL, 6-(benzyloxy)-1-[(E)-2-(1H-indol-4-yl)ethenyl]-7-methoxy-1,2,3,4-tetrahydroisoquinoline] returned an EC50 in data set [1] of 1.5 µM. This compound also showed a CC50 at 96 h in data set [2] of 7.2 µM.
Taken in the same sequence, the figures for `COc1cc2c(cc1OCc1ccccc1)CCNC2/C=C/c1cccnc1N(C)C` (stereo not shown) [CU, 3-[(E)-2-[6-(benzyloxy)-7-methoxy-1,2,3,4-tetrahydroisoquinolin-1-yl]ethenyl]-N,N-dimethylpyridin-2-amine] were 1.4 µM and 19.9 µM.
The corresponding values for `COc1cc2c(cc1/C=C/C1NCCc3cc(OCc4ccccc4)c(OC)cc31)OCCO2` (stereo not shown) [CQ, 6-(benzyloxy)-7-methoxy-1-[(E)-2-(7-methoxy-2,3-dihydro-1,4-benzodioxin-6-yl)ethenyl]-1,2,3,4-tetrahydroisoquinoline] are 0.06 µM and 1.4 µM.
`COc1cc2c(cc1OCc1ccccc1)CCNC2/C=C/c1cccc2c1ccn2C(=O)OC(C)(C)C` (stereo not shown) [CK, tert-butyl 4-[(E)-2-[6-(benzyloxy)-7-methoxy-1,2,3,4-tetrahydroisoquinolin-1-yl]ethenyl]-1H-indole-1-carboxylate]: the EC50 in data set [1] amounted to 0.805 µM. This compound also showed a CC50 at 96 h in data set [2] of 5.99 µM.
The compound `COc1cc2c(cc1OCc1ccccc1)CCNC2/C=C/c1ccc2cn[nH]c2c1` (stereo not shown) [BT, 6-(benzyloxy)-1-[(E)-2-(1H-indazol-6-yl)ethenyl]-7-methoxy-1,2,3,4-tetrahydroisoquinoline] showed an EC50 in data set [1] of 0.613 µM. The compound further gave a CC50 at 96 h in data set [2] of 7.98 µM.
Taken in the same sequence, the figures for `COc1cc2c(cc1OCc1ccccc1)CCNC2/C=C/c1ccc2ccn(C(=O)OC(C)(C)C)c2c1` (stereo not shown) [CS, tert-butyl 6-[(E)-2-[6-(benzyloxy)-7-methoxy-1,2,3,4-tetrahydroisoquinolin-1-yl]ethenyl]-1H-indole-1-carboxylate] were 0.912 µM and 6.15 µM.
Taken in the same sequence, the figures for `COc1cc2c(cc1OCc1ccccc1)CCNC2/C=C/c1ccc(F)c(O)c1F` (stereo not shown) [CO, 3-[(E)-2-[6-(benzyloxy)-7-methoxy-1,2,3,4-tetrahydroisoquinolin-1-yl]ethenyl]-2,6-difluorophenol] were 6 µM and 10 µM.
For `COc1cc2c(cc1OCc1ccccc1)CCNC2/C=C/c1ccc2c(ccn2C(=O)OC(C)(C)C)c1` (stereo not shown) [CM, tert-butyl 5-[(E)-2-[6-(benzyloxy)-7-methoxy-1,2,3,4-tetrahydroisoquinolin-1-yl]ethenyl]-1H-indole-1-carboxylate], the midpoint of the response in data set [1], the EC50, lay at 1.3 µM. Moreover, the CC50 at 96 h in data set [2] came out at 10 µM.
Taken in the same sequence, the figures for `COc1cc2c(cc1OCc1ccccc1)CCNC2/C=C/c1cccc(S(C)(=O)=O)c1` (stereo not shown) [CP, 6-(benzyloxy)-1-[(E)-2-(3-methanesulfonylphenyl)ethenyl]-7-methoxy-1,2,3,4-tetrahydroisoquinoline] were 3.07 µM and 20.6 µM.
Taken in the same sequence, the figures for `COc1cc(/C=C/C2NCCc3cc(OCc4ccccc4)c(OC)cc32)c(N(C)C)cc1OC` (stereo not shown) [CT, 2-[(E)-2-[6-(benzyloxy)-7-methoxy-1,2,3,4-tetrahydroisoquinolin-1-yl]ethenyl]-4,5-dimethoxy-N,N-dimethylaniline] were 0.2 µM and 8.9 µM.
Taken in the same sequence, the figures for `COc1cc2c(cc1/C=C/C1NCCc3cc(OCc4ccccc4)c(OC)cc31)OCO2` (stereo not shown) [CR, 6-(benzyloxy)-7-methoxy-1-[(E)-2-(6-methoxy-2H-1,3-benzodioxol-5-yl)ethenyl]-1,2,3,4-tetrahydroisoquinoline] were 0.12 µM and 3.3 µM.
